# Tests used:
# SOCE of Jurkat T cells = assay: SOCE inhibition in thapsigargin-treated Jurkat cells (Indo-1 cytosolic calcium); type: cell-based; settings: for Ki: SOCE, compound added 30 s before reintroduction of calcium; for concentration below which only SOCE is inhibited (no effect on SERCA and IP3R): selectivity versus SERCA and IP3R
# Protocol: The Jurkat T lymphocyte line was mainly used for characterizing the effect of the molecules on SOCE. The Indo-1 ratiometric probe was used to visualize cytosolic calcium variations. For this, the cells in culture were centrifuged and then resuspended and incubated in PBS (Phosphate Buffered Saline) medium supplemented with 1 mg/ml of albumin and 4 μM of Indo-1-AM for 45 mim at ambient temperature and in the dark.
# The SOCE phenomenon was evaluated conventionally. Jurkat cells were placed in calcium-free HBS medium and stimulated with 1 μM of thapsigargin (TG, arrow in FIG. 2A) for 600 s in order to allow calcium release from the ER and SOCC channel opening(=CRAC). The addition of 1 mM of CaCl2 to the medium allows massive calcium ion entry through the SOCCs and an increase in the concentration of cytosolic calcium ([Ca^2+]cyt).
# The dose-response curves were established after addition of 2-APB or of an analog thereof 30 seconds before the reintroduction of calcium.
# [1] = system: Mn2+ influx via the SOCCs; assay: Mn2+ quenching of indo-1 in TG-treated Jurkat cells; type: cell-based; settings: 1 μM
# Protocol: In order to determine whether compound P11 has an action on SOCE and not on calcium efflux mechanisms, a quenching experiment with Mn^2+ was carried out by means of the indo-1 molecule. The Mn^2+ ions enter the cells via the SOCCs, but cannot be pumped into the extracellular membrane by the plasma membrane calcium-dependent ATPases (plasma membrane Ca^2+ ATPases, or PMCA) or the sodium/calcium exchanger (Na^+/Ca^2+ exchanger, or NCX) or sent back into the lumen of the ER by the sarcoplasmic-endoplasmic reticulum Ca^2+ ATPases (or SERCAs). Once in the cell, Mn^2+ binds to indo-1 and quenches its fluorescence measured at 430 nm. An increase in the amplitude of the Mn^2+ influx is therefore associated with an increase in the indo-1 quenching rate, and vice versa.
# After 10 minutes of treatment with TG in order to open the SOCCs, 100 μM of MnCl2 were added. A degree of quenching of −0.89±0.05% Fo/s was observed (FIG. 3A). In the presence of increasing concentrations of P11 added 30 seconds before the addition of Mn^2+ ions, the degree of quenching decreased and reached a blocking of approximately 90% at 1 μM (−0.09±0.01, FIG. 3A).
# [2] = system: SOCE in DG75 cells (B lymphocytes); assay: SOCE inhibition in DG75 cells; type: cell-based
# Protocol: (§1) The Jurkat T lymphocyte line was mainly used for characterizing the effect of the molecules on SOCE. The Indo-1 ratiometric probe was used to visualize cytosolic calcium variations. For this, the cells in culture were centrifuged and then resuspended and incubated in PBS (Phosphate Buffered Saline) medium supplemented with 1 mg/ml of albumin and 4 μM of Indo-1-AM for 45 mim at ambient temperature and in the dark. The cells were then again centrifuged and resuspended in the HBS (Hepes-Buffered Saline) recording medium having the composition (in mM): 135 mM NaCl, 5.9 mM KCl, 1.2 mM MgCl2, 11.6 mM Hepes, 11.5 mM glucose, pH adjusted to 7.3 with NaOH. 0.5 to 1 million cells are then placed in the cuvette of a Varian Cary Eclipse spectrofluorimeter and the Indo-1 probe is excited at 360 nm, with emission of fluorescence at 405 and 480 nm. The ratio of fluorescence at 405 and 480 nm is directly proportional to the [Ca^2+]cyt.
# (§2) The lines of monocyte origin U937, B lymphocyte origin (DG75) and breast cancer origin (MDA-MB231) were also used with the same protocol.
# [3] = system: SOCE in U937 cells (monocytes); assay: SOCE inhibition in U937 cells; type: cell-based; settings: FIG. 3B
# Protocol: as §1, §2
# [4] = system: SOCE in MDA-MB231 cells (hormone-independent breast cancer cells); assay: SOCE inhibition in MDA-MB231 cells; type: cell-based; settings: FIG. 3B
# Protocol: as §1, §2
# IP3R = molecular target: T1, IP3R (Mus musculus, UniProt P11881); assay: IP3-dependent 45Ca2+ release in permeabilized L15 cells; type: biochemical
# T1 construct: expressed in transfected cells; host or cells: L15 cell line, permeabilized with saponin
# T1 sequence (P11881 whole entry): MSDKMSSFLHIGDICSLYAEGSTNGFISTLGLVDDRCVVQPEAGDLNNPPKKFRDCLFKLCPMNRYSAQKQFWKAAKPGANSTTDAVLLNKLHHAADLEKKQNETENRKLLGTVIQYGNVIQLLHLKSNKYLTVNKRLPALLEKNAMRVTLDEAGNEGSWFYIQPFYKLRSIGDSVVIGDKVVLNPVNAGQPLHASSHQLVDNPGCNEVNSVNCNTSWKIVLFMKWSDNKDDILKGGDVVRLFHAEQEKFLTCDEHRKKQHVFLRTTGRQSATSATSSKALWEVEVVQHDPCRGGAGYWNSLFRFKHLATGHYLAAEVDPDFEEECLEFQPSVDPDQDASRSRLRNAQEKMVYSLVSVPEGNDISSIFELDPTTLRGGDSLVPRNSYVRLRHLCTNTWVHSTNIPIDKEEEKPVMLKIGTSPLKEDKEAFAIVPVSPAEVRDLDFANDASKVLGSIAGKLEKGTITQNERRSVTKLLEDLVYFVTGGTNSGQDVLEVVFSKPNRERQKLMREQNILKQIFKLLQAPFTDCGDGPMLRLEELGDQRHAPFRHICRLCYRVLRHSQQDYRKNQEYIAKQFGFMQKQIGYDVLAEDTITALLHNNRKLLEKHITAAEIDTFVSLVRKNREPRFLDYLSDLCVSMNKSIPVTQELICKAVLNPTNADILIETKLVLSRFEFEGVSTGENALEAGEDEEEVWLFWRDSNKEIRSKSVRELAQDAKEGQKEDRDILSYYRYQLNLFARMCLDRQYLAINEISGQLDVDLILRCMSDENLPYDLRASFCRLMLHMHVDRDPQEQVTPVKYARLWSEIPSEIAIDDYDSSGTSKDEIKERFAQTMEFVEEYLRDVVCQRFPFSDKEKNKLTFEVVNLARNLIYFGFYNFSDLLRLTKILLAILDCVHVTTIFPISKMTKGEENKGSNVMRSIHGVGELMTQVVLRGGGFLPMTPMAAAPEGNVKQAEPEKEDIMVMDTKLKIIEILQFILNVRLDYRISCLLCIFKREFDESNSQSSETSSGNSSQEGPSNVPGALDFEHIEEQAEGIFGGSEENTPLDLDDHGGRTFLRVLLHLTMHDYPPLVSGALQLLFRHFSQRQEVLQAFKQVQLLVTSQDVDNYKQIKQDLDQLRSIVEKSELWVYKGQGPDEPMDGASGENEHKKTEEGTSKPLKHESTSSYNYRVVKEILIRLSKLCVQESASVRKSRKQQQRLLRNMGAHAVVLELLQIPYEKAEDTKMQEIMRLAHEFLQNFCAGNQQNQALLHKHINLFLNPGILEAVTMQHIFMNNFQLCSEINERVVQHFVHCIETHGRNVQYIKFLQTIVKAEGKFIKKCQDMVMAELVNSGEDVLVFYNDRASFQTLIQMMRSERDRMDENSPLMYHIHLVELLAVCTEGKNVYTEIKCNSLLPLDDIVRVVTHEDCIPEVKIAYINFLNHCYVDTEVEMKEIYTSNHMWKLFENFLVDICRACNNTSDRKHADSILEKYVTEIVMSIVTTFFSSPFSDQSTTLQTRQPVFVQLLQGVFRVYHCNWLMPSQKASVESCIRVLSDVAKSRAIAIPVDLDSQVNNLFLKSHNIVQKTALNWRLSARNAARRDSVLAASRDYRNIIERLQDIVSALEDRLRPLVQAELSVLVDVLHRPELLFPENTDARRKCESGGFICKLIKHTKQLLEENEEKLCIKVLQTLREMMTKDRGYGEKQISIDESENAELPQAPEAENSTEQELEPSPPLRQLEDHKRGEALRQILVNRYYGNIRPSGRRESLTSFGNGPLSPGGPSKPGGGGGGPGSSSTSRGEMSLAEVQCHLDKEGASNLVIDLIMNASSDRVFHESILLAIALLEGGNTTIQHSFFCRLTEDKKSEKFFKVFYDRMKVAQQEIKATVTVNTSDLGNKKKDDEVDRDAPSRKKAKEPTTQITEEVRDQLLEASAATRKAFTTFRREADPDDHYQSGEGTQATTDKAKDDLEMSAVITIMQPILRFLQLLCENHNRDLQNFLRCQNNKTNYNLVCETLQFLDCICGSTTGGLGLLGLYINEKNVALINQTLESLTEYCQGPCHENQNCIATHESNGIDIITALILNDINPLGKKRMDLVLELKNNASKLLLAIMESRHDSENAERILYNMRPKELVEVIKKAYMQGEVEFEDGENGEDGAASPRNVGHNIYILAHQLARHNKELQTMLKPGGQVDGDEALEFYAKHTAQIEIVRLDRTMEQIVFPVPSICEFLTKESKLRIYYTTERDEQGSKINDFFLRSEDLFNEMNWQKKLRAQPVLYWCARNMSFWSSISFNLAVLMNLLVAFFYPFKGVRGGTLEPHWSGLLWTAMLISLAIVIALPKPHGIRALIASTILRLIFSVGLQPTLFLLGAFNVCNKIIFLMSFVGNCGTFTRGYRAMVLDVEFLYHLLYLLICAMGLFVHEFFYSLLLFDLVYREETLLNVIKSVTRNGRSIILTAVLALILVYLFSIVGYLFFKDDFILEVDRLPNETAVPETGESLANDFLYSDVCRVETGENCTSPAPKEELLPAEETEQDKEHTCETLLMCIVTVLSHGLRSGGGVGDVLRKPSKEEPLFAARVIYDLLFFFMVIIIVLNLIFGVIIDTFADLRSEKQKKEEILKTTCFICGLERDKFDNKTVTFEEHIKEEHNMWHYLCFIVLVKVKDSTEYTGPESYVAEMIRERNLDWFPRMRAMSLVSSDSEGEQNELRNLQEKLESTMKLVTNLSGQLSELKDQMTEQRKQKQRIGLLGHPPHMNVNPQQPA
# Protocol: (§3) To test the selectivity of certain molecules on SOCE compared to IP3R and SERCA, the L15 line stably expressing type 1 IP3R was used. Briefly, the cells were permeabilized with saponin and incubated in the presence of ^45Ca^2+ in a medium containing ATP allowing SERCA activity and Ca' ion entry into the ER. The addition of TG makes it possible to induce release from the ER and therefore to measure the amount of Ca^2+ ions that have left the ER, which is itself directly linked to the SERCA activity. The addition of IP3 allows direct measurement of the amount of Ca' ions leaving the ER by IP3R opening.
# (§4) The ^45Ca^2+ loading and IP3-dependent release measurements were carried out on permeabilized cells under one-way conditions.
# SERCA = assay: 45Ca2+ loading (SERCA activity) in permeabilized L15 cells; type: biochemical; settings: for Ki: permeabilized cells
# Protocol: as §3, §4
# [5] = system: PHA-stimulated Jurkat cells; assay: IL-2 synthesis by PHA-stimulated Jurkat cells (Elisa); type: cell-based
# Protocol: In order to measure the interleukin-2 (IL-2) synthesis in 24 h after stimulation with 10 μg/ml of phytohemagglutinin (PHA) in the presence or absence of certain molecules, the Jurkat cells are centrifuged and the supernatant containing the IL-2 is collected. The 11-2 concentration is measured by Elisa (R&D systems kit).
# The concentration of neosynthesized IL-2 was measured in the culture medium of phytohemagglutinin (PHA)-stimulated Jurkat cells after 24 h, in the presence of increasing concentrations of compound P11. […] Conversely, stimulation with PHA allows the detection of approximately 100 pg/ml of IL-2 (103 ±4 pg/ml, FIG. 5A). The addition of increasing concentrations of P11 at the same time as the stimulation by PHA leads to a gradual decrease in IL-2 synthesis to 26±6 pg/ml for 1 μM of P11 (-74%, FIG. 5B).
# Jurkat cells = assay: Cell death of Jurkat cells; type: cell-based
# [6] = system: caspase-3 activity of Jurkat cells; assay: Caspase-3 activity in Jurkat cells (Ac-DEVD-AFC substrate); type: cell-based
# Protocol: The caspase-3 activity is measured with a fluorescent kit using the Ac-DEVD-AFC substrate. The Jurkat cells are incubated for 24 h with PHA in the presence or absence of certain molecules. The cells are then lyzed with RIPA medium, and the amounts of proteins are then measured with a commercial kit (Biorad). The cell lysates are then diluted in the following reaction medium: 200 mM Hepes, pH 7.4, 1 mM EDTA, 20% sucrose and 20 mM dithiothreitol, then incubated with 20 μM of the fluorogenic substrate for 45 min […] at 37° C. The appearance of the fluorescent AFC product is measured by spectrofluorimetry (excitation at 405 nm, emission at 505 nm).
# (§5) The caspase-3 activity was then evaluated by means of an Ac-DEVD-AFC fluorogenic substrate, and apoptosis was evaluated by means of a TUNEL assay.
# [7] = system: PHA-stimulated Jurkat cells; assay: TUNEL assay of DNA fragmentation in PHA-stimulated Jurkat cells; type: cell-based; settings: concentrations greater than 10 nM
# Protocol: The Roche TUNEL kit was used to observe the nuclear DNA fragmentation and therefore cell apoptosis.
# as §5
# Orai1-SOCE in leukocytes = settings: cited from earlier work
# [8] = PHA, increasing amounts of P11, FIG. 5C
compound,measurement,setting,value
COc1ccc(B(OCCN)c2ccc(OC)cc2)cc1 [Compound P2],Ki,SOCE of Jurkat T cells; Jurkat cells,3500 ± 650 nM
Cc1ccc(B(OCCN)c2ccc(C)c(C)c2)cc1C [Compound P7],Ki,SOCE of Jurkat T cells; Jurkat cells,751 ± 97 nM
Cc1cccc(B(OCCN)c2cccc(C)c2)c1 [Compound P5],Ki,SOCE of Jurkat T cells; Jurkat cells,2100 ± 600 nM
NCCOB(c1ccc(F)cc1)c1ccc(F)cc1 [Compound P14],Ki,SOCE of Jurkat T cells; Jurkat cells,5400 ± 300 nM
CC(C)(C)c1ccc(B(OCCN)c2ccc(C(C)(C)C)cc2)cc1 [Compound P8],Ki,SOCE of Jurkat T cells; Jurkat cells,350 ± 40 nM
"NCCOB(c1ccc(-c2ccccc2)cc1)c1ccc(-c2ccccc2)cc1 [Compound P11, 2-(dibiphenyl-4-ylboryloxy)ethamine]",Ki,SOCE of Jurkat T cells; Jurkat cells,75 ± 21 nM
same,concentration below which only SOCE is inhibited (no effect on SERCA and IP3R),SOCE of Jurkat T cells,less than 1 μM
same,blocking of Mn2+ quenching,[1],approximately 90%
same,degree of indo-1 quenching by Mn2+,"[1]; added 30 s before 100 μM MnCl2, after 10 min TG",−0.09±0.01 % Fo/s
same,Ki,"[2]; DG75 cells (B lymphocytes), FIG. 3B",32 ± 2 nM
same,concentration at which total inhibition of SOCE is achieved,"[2]; FIG. 3B (other cell types: DG75, U937, MDA-MB231)",100 nM
same,Ki,[3],40 ± 5 nM
same,Ki,[4],50 ± 5 nM
same,inhibition at 100 µM,IP3R; 100 μM,29 ± 9%
same,ratio Ki SERCA versus Ki SOCE,SERCA; SERCA 7.4 μM vs SOCE 75 nM,100 times
same,inhibition of SERCA,SERCA; concentration greater than 30 μM,89%
same,Ki,SERCA,7400 nM
same,IL-2 concentration in culture medium,"[5]; 1 μM with 10 μg/ml PHA, 24 h",26 ± 6 pg/mL
same,change in IL-2 synthesis,"[5]; 1 μM with PHA, 24 h",-74%
same,IL-2 synthesized by the remaining living cells,[5]; [8],39.2 ± 8.6 pg/mL
same,decrease of IL-2 synthesis capacity of remaining living cells,[5]; [8],approximately 63%
same,percentage of dead cells,Jurkat cells; 1 μM combined with PHA,33.2±1.3%
same,"toxic effect on the cells, compound alone",Jurkat cells; without PHA,did not exhibit any toxic effect
same,caspase-3 activity,"[6]; 1 μM with PHA, 24 h",3332±113 AU
same,increase of caspase-3 activity (factor),"[6]; with PHA, from 10 nM, maximum effect",3
same,"caspase-3 activity, compound alone","[6]; without PHA, up to 1 μM",does not induce an increase in caspase-3 activity
same,cells containing fragmented DNA,[7],17.9±1.2%
same,fold increase in number of cells containing fragmented DNA,[7],4.5 fold
Cc1ccc(B(OCCN)c2ccc(C)cc2)cc1 [Compound P3],Ki,SOCE of Jurkat T cells; Jurkat cells,3500 ± 600 nM
COc1cccc(B(OCCN)c2cccc(OC)c2)c1 [Compound P4],maximum inhibition of SOCE,SOCE of Jurkat T cells; Jurkat cells,80%
same,Ki,SOCE of Jurkat T cells; Jurkat cells,75000 ± 21000 nM
CC(C)(C)c1ccc(B(OCCN)c2ccc(C(C)(C)C)cc2)cc1 [Compound P9],Ki,SOCE of Jurkat T cells; Jurkat cells,641 ± 103 nM
same,concentration below which only SOCE is inhibited (no effect on SERCA and IP3R),SOCE of Jurkat T cells,Below 3 μM
same,inhibition of IP3R activity (in words),IP3R; FIG. 4,did not significantly inhibit
same,Ki,SERCA,6000 ± 300 nM
NCCOB(c1ccc(Cl)cc1)c1ccc(Cl)cc1 [Compound P13],Ki,SOCE of Jurkat T cells; Jurkat cells,1840 ± 100 nM
Cc1ccc(B(OCCN)c2ccc(C)c(Cl)c2)cc1Cl [Compound P15],Ki,SOCE of Jurkat T cells; Jurkat cells,294 ± 74 nM
"NCCOB(c1ccccc1)c1ccccc1 [Compound 2-APB, 2-Aminoethoxydiphenyl borate, reference compound]",effect on calcium entry at 5 μM,"SOCE of Jurkat T cells; Jurkat cells, 5 μM, FIG. 2A",high potentiation of calcium entry
same,effect on calcium entry at 50 μM,"SOCE of Jurkat T cells; Jurkat cells, 50 μM, FIG. 2A",virtually total inhibition
same,concentration at which Orai1-SOCE is inhibited,Orai1-SOCE in leukocytes,greater than 30 μM
